Data published in ChEMBL document CHEMBL1138003, “Small molecule inhibitors of the CCR2b receptor. Part 1: Discovery and optimization of homopiperazine derivatives” (Bioorg Med Chem Lett, 2004).

Experiments:
[1] = target: T1, C-C chemokine receptor type 2 (Homo sapiens, UniProt P41597); test: Percent inhibition of […] (Monocyte Chemoattractant Protein-1) binding to THP-1 cells at 100 uM; assay type: cell-based
Target sequence in this assay (P41597 whole entry, looked up): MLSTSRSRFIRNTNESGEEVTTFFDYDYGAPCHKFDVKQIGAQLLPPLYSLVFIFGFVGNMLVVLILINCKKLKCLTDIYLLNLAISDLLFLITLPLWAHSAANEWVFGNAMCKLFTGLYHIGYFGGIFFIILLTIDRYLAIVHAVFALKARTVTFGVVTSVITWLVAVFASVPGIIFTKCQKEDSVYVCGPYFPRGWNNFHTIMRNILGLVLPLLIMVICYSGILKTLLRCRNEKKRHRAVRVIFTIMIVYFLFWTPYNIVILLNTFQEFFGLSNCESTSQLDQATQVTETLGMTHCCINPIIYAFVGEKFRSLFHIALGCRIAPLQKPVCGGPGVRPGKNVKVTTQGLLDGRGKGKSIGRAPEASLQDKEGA

[2] = target: T1, C-C chemokine receptor type 2; test: Concentration required to inhibit [125I]MCP-1 (Monocyte Chemoattractant Protein-1) binding to THP-1 cell; assay type: cell-based
Target sequence in this assay (P41597 whole entry): as the sequence (P41597 whole entry, looked up) above

[3] = target: T1, C-C chemokine receptor type 2; test: Percent inhibition of [125I]MCP-1 (Monocyte Chemoattractant Protein-1) binding to THP-1 cells at 100 uM; assay type: cell-based
Target sequence in this assay (P41597 whole entry, looked up): as above

[4] = Effective concentration in a chemotaxis assay; assay type: functional
[5] = target: T1, C-C chemokine receptor type 2; test: Concentration required to inhibit [125I]MCP-1 (Monocyte Chemoattractant Protein-1) binding to THP-1 cell; not determined; assay type: cell-based
Target sequence in this assay (P41597 whole entry): as the sequence (P41597 whole entry, looked up) above

inhibition [1]	IC50 [2]	inhibition [3]	Structure (SMILES)	also measured
35%	–	–	O=[N+]([O-])c1cccc(CN2CCCN(CCC(c3ccccc3)c3ccccc3)CC2)c1	–
–	1.5 µM	–	NS(=O)(=O)c1ccc(CN2CCCN(CCC(O)(c3ccccc3)c3cccc(O)c3)CC2)cc1 (stereo not given)	–
–	4 µM	100%	CS(=O)(=O)c1ccc(CN2CCCN(CCC(O)(c3ccccc3)c3cccc(CO)c3)CC2)cc1 (stereo not given)	–
–	4.5 µM	99%	CS(=O)(=O)c1ccc(CN2CCCN(CCC(O)(c3cccc(O)c3)c3cccc(Cl)c3)CC2)cc1 (stereo not given)	–
7%	–	–	COc1ccc(CN2CCCN(CCC(c3ccccc3)c3ccccc3)CC2)cc1	–
15%	–	–	CCCN1CCCN(CCC(c2ccccc2)c2ccccc2)CC1	–
–	5 µM	87%	CNc1cccc(C(O)(CCN2CCCN(Cc3ccc(S(C)(=O)=O)cc3)CC2)c2ccccc2)c1 (stereo not given)	–
–	9.3 µM	107%	CS(=O)(=O)c1ccc(CN2CCCN(CCC(O)(c3cccc(O)c3)c3cc(F)cc(F)c3)CC2)cc1 (stereo not given)	–
–	1.5 µM	104%	CS(=O)(=O)c1ccc(CN2CCCN(CCC(O)(c3ccc(Cl)cc3)c3cccc(O)c3)CC2)cc1 (stereo not given)	–
–	7 µM	100%	CS(=O)(=O)c1ccc(CN2CCCN(CCC(O)(c3ccc(F)cc3)c3ccc(F)cc3)CC2)cc1	–
–	–	0%	CS(=O)(=O)c1ccc(CN2CCCN(CCC(O)(c3ccc(-c4ccccc4)cc3)c3ccc(-c4ccccc4)cc3)CC2)cc1	–
–	–	28%	CS(=O)(=O)c1ccc(CN2CCCN(CCC(O)(c3cccc(Cl)c3)c3cccc(Cl)c3)CC2)cc1	–
–	28 µM	–	O=C(CN1CCCN(CCC(O)(c2ccccc2)c2cccc(O)c2)CC1)NNC(=O)c1cccs1 (stereo not given)	–
–	–	38%	COc1cccc(C(O)(CCN2CCCN(Cc3ccc(S(C)(=O)=O)cc3)CC2)c2cccc(OC)c2)c1	–
–	–	0%	Cc1ccccc1C(O)(CCN1CCCN(Cc2ccc(S(C)(=O)=O)cc2)CC1)c1ccccc1C	–
–	7.4 µM	–	Cc1csc(C(=O)NNC(=O)CN2CCCN(Cc3ccc(Cl)cc3)CC2)c1	EC50 [4]: 9.5 µM
–	16 µM	92%	Cc1cccc(C(O)(CCN2CCCN(Cc3ccc(S(C)(=O)=O)cc3)CC2)c2ccccc2)c1 (stereo not given)	–
87%	19 µM	–	O=[N+]([O-])c1ccc(CN2CCCN(CCC(c3ccccc3)c3ccccc3)CC2)cc1	–
–	4.2 µM	102%	CS(=O)(=O)c1ccc(CN2CCCN(CCC(O)(c3ccccc3)c3cccc(N)c3)CC2)cc1 (stereo not given)	–
–	–	38%	CS(=O)(=O)c1ccc(CN2CCCN(CCC(O)(c3ccc(C(F)(F)F)cc3)c3ccc(C(F)(F)F)cc3)CC2)cc1	–
35%	–	–	c1ccc(C(CCN2CCCN(Cc3ccccn3)CC2)c2ccccc2)cc1	–
24%	–	–	c1ccc(CN2CCCN(CCC(c3ccccc3)c3ccccc3)CC2)cc1	–
–	2.4 µM	104%	CS(=O)(=O)c1ccc(CN2CCCN(CCC(O)(c3cccc(O)c3)c3cccc(F)c3)CC2)cc1 (stereo not given)	–

inhibition [1]	IC50 [2]	inhibition [3]	Structure (SMILES)	also measured
–	21 µM	83%	CS(=O)(=O)c1ccc(CN2CCCN(CCC(O)(c3ccc(O)cc3)c3ccc(O)cc3)CC2)cc1	–
–	11 µM	94%	CS(=O)(=O)c1ccc(CN2CCCN(CCC(O)(c3ccc(Cl)cc3)c3ccc(Cl)cc3)CC2)cc1	–
–	–	108%	CS(=O)(=O)c1ccc(CN2CCCN(CCC(O)(c3cccc(O)c3)c3cccc(O)c3)CC2)cc1	IC50 [5]: 1.5 µM
–	34 µM	75%	CS(=O)(=O)c1ccc(CN2CCCN(CCC(O)(c3cccc(F)c3)c3cccc(F)c3)CC2)cc1	–
7%	–	–	O=[N+]([O-])c1ccccc1CN1CCCN(CCC(c2ccccc2)c2ccccc2)CC1	–
–	6.4 µM	–	Cc1csc(C(=O)NNC(=O)CN2CCCN(CCC(O)(c3ccccc3)c3cccc(O)c3)CC2)c1 (stereo not given)	–
91%	13 µM	–	CS(=O)(=O)c1ccc(CN2CCCN(CCC(c3ccccc3)c3ccccc3)CC2)cc1	–
–	4.1 µM	104%	CS(=O)(=O)c1ccc(CN2CCCN(CCC(O)(c3ccccc3)c3ccccc3)CC2)cc1	–
–	45 µM	68%	CN(C)c1ccc(C(O)(CCN2CCCN(Cc3ccc(S(C)(=O)=O)cc3)CC2)c2ccc(N(C)C)cc2)cc1	–
–	–	39%	CC(C)(C)c1ccc(C(O)(CCN2CCCN(Cc3ccc(S(C)(=O)=O)cc3)CC2)c2ccc(C(C)(C)C)cc2)cc1	–
25%	–	–	FC(F)(F)c1ccc(CN2CCCN(CCC(c3ccccc3)c3ccccc3)CC2)cc1	–
–	1.5 µM	105%	CS(=O)(=O)c1ccc(CN2CCCN(CCC(O)(c3ccc(F)cc3)c3cccc(O)c3)CC2)cc1 (stereo not given)	–
1%	–	–	COC(=O)c1ccc(CN2CCCN(CCC(c3ccccc3)c3ccccc3)CC2)cc1	–
–	> 100 µM	–	CS(=O)(=O)c1ccc(CN2CCCN(Cc3ccc(Cl)cc3)CC2)cc1	–
–	–	14%	COc1ccccc1C(O)(CCN1CCCN(Cc2ccc(S(C)(=O)=O)cc2)CC1)c1ccccc1OC	–
74%	43 µM	–	N#Cc1ccc(CN2CCCN(CCC(c3ccccc3)c3ccccc3)CC2)cc1	–
87%	11 µM	–	c1ccc(C(CCN2CCCN(Cc3ccncc3)CC2)c2ccccc2)cc1	–
–	7.9 µM	97%	COc1cccc(C(O)(CCN2CCCN(Cc3ccc(S(C)(=O)=O)cc3)CC2)c2ccccc2)c1 (stereo not given)	–
–	0.71 µM	105%	CS(=O)(=O)c1ccc(CN2CCCN(CCC(O)(c3ccccc3)c3cccc(O)c3)CC2)cc1 (stereo not given)	–
–	12 µM	95%	CS(=O)(=O)c1ccc(CN2CCCN(CCC(O)(c3ccccc3)c3cccc(F)c3)CC2)cc1 (stereo not given)	–
–	30 µM	–	O=C(CN1CCCN(Cc2ccc(Cl)cc2)CC1)NNC(=O)c1cccs1	–
69%	–	–	c1ccc(C(CCN2CCCN(Cc3cccnc3)CC2)c2ccccc2)cc1	–
8%	–	–	Clc1ccc(CN2CCCN(CCC(c3ccccc3)c3ccccc3)CC2)cc1	–
